# Experimental data from patent publication US20250340574A1, “MODULATORS OF CYSTIC FIBROSIS TRANSMEMBRANE CONDUCTANCE REGULATOR” (Vertex Pharmaceuticals Incorporated, priority 2022, published 2025).
# Where two headings read alike, the source gives them in different places.
# Target: T1, CFTR (F508del/MF-HBE cells) (Homo sapiens, UniProt P13569, DEL508-508)
# T1 construct: human bronchial epithelial (HBE) cells derived from CF subjects heterozygous for F508del and a minimal function CFTR mutation (F508del/MF-HBE); endogenous in cells; host or cells: Primary human bronchial epithelial cells from CF subjects (F508del/MF genotype), differentiated at an air-liquid interface
# Assay: Ussing chamber assay of CFTR-mediated short-circuit currents, Assay C (0.026 μM to 25 μM, 6 concentrations)
# Format: cell-based
# Conditions: with 33 nM potentiator and 18 μM Tezacaftor, 20% human serum; for Emax: read-out: C Max activity (%)
# Protocol: Ussing chamber experiments were performed using human bronchial epithelial (HBE) cells derived from CF subjects heterozygous for F508del and a minimal function CFTR mutation (F508del/MF-HBE) and cultured as previously described (Neuberger T, Burton B, Clark H, Van Goor F Methods Mol Biol 2011:741:39-54). After four days the apical media was removed, and the cells were grown at an air liquid interface for >14 days prior to use.
# To isolate the CFTR-mediated short-circuit (ISC) current, F508del/MF-HBE grown on Costar® Snapwell™ cell culture inserts were mounted in an Ussing chamber and the transepithelial ISC was measured under voltage-clamp recording conditions (Vhold=0 mV) at 37° C. The basolateral solution contained (in mM) 145 NaCl, 0.83 K2HPO4, 3.3 KH2PO4, 1.2 MgCl2, 1.2 CaCl2, 10 Glucose, 10 HEPES (pH adjusted to 7.4 with NaOH) and the apical solution contained (in mM) 145 NaGluconate, 1.2 MgCl2, 1.2 CaCl2, 10 glucose, 10 HEPES (pH adjusted to 7.4 with NaOH) and 30 μM amiloride to block the epithelial sodium channel. Forskolin (20 μM) was added to the apical surface to activate CFTR, followed by apical addition of a CFTR inhibitor cocktail consisting of BPO, GlyH-101, and CFTR inhibitor 172 (each at 20 μM final assay concentration) to specifically isolate CFTR currents. The CFTR-mediated ISC (μA/cm^2) for each condition was determined from the peak forskolin response to the steady-state current following inhibition.
# The activity of the CFTR corrector compounds on the CFTR-mediated ISC was determined in Ussing chamber studies as described above. The F508del/MF-HBE cell cultures were either incubated with the corrector compounds at a range of concentrations in combination with 33 nM (6R,12R)-17-amino-12-methyl-6,15-bis(trifluoromethyl)-13,19-dioxa-3,4,18-triazatricyclo[12.3.1.12,5]nonadeca-1(18),2,4,14,16-pentaen-6-ol and 18 μM Tezacaftor or were incubated with the corrector compounds at a single fixed concentration of 1 μM in combination with 44 nM (6R,12R)-17-amino-12-methyl-6,15-bis(trifluoromethyl)-13,19-dioxa-3,4,18-triazatricyclo[12.3.1.12,5]nonadeca-1(18),2,4,14,16-pentaen-6-ol and 18 μM Tezacaftor for 18-24 hours at 37° C. and in the presence of 20% human serum. The concentration of corrector compounds with 44 nM or 33 nM (6R,12R)-17-amino-12-methyl-6,15-bis(trifluoromethyl)-13,19-dioxa-3,4,18-triazatricyclo[12.3.1.12,5]nonadeca-1(18),2,4,14,16-pentaen-6-ol and 18 μM Tezacaftor during the 18-24 hours incubations was kept constant throughout the Ussing chamber measurement of the CFTR-mediated ISC to ensure compounds were present throughout the entire experiment. The efficacy and potency of the putative F508del correctors was compared to that of the known Vertex corrector, (14S)-8-[3-(2-{Dispiro[2.0.2.1]heptan-7-yl}ethoxy)-1H-pyrazol-1-yl]-12,12-dimethyl-2λ^6-thia-3,9,11,18,23-pentaazatetracyclo[17.3.1.111,14.05,10]tetracosa-1(22),5,7,9,19(23),20-hexaene-2,2,4-trione, in combination with 18 μM Tezacaftor and 1 μM Ivacaftor.
# • Assay A: 0.1 μM to 25 μM, 6 concentrations • Assay B: 0.00001 μM to 25 μM, 12 concentrations • Assay C: 0.026 μM to 25 μM, 6 concentrations • Assay D: Activity at single concentration of 1 μM
# T1 sequence (P13569 with tags, fused parts or gaps DEL508-508): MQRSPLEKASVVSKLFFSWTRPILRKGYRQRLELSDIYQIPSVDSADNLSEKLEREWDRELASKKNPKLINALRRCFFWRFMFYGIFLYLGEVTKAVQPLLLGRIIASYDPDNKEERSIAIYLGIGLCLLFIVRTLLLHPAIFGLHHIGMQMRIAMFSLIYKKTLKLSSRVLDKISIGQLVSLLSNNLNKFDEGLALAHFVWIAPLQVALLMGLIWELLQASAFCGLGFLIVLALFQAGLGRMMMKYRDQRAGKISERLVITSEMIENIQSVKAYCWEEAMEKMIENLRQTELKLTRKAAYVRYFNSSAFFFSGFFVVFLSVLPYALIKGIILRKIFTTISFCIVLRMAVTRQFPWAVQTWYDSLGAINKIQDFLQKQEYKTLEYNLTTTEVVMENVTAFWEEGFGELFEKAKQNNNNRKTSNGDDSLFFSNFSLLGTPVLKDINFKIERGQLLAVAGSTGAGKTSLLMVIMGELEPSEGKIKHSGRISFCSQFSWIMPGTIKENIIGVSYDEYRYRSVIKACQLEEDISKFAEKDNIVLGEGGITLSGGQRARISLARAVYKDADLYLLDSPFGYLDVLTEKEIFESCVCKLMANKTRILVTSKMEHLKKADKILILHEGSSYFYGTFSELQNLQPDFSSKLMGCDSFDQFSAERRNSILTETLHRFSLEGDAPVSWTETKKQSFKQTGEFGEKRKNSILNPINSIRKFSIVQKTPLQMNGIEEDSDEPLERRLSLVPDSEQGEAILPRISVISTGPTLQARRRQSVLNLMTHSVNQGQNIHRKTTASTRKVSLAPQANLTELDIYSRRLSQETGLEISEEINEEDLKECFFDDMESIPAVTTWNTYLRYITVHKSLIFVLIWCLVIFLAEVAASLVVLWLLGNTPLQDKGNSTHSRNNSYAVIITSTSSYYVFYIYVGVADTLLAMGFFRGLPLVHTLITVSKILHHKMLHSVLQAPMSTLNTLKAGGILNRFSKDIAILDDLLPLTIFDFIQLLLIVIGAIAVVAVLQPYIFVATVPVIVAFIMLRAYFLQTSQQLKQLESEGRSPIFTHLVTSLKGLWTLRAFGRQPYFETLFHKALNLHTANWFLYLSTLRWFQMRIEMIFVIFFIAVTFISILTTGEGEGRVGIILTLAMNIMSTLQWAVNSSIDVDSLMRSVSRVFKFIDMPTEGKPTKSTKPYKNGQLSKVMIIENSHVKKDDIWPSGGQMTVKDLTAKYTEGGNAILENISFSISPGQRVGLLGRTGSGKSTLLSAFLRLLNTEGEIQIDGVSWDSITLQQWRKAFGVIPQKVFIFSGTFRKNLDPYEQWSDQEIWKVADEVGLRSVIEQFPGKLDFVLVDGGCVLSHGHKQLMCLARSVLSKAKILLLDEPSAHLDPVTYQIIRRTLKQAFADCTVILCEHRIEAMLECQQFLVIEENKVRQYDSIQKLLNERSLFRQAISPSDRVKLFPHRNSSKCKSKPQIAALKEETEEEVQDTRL
Compound,Emax (18-24 hours) [%],EC50 [µM],Emax [%]
"Cc1cccc(CC2CCCC2)c1-c1nc2nc(c1C)OC[C@@H](CC(C)(C)C)N(Cc1cnc3cc(C(C)C)n(C)c3n1)C(=O)c1cccc(c1)S(=O)(=O)N2 (atropisomer, axis not shown; (P)) [Compound I-196, (5P,11R)-6-[2-(cyclopentylmethyl)-6-methylphenyl]-11-(2,2-dimethylpropyl)-7-methyl-12-{[5-methyl-6-(propan-2-yl)-5H-pyrrolo[2,3-b]pyrazin-3-yl]methyl}-9-oxa-2λ^6-thia-3,5,12,19-tetraazatricyclo[12.3.1.1∧{4,8}]nonadeca-1(17),4(19),5,7,14(18),15-hexaene-2,2,13-trione]",> 60,< 1,–
"Cc1cccc(CC(C)C)c1-c1nc2nc(c1C)OC[C@@H](C(C)C)N(Cc1cnc3cc(C(C)(C)C)n(C)c3n1)C(=O)c1cccc(c1)S(=O)(=O)N2 (atropisomer, axis not shown) [IV-79]",–,< 1,> 60
Cc1cccc(C)c1-c1nc2nc(c1C)OC[C@@H](C[C@H]1CCCO1)N(Cc1cnc3cc(C4(C(F)(F)F)CC4)n(C)c3n1)C(=O)c1cccc(c1)S(=O)(=O)N2 [IV-106],–,< 1,> 60
Cc1cccc(C)c1-c1cc2nc(n1)NS(=O)(=O)c1cccc(c1)C(=O)N(Cc1cnc3oc(C4CC4)cc3n1)[C@H](C[C@@H]1CCCCO1)CO2 [IV-86],–,3 to 30,> 60
"Cc1cccc(OC(C)C)c1-c1nc2nc(c1C)OC[C@@H](CC(C)(C)C)N(Cc1cnc3cc(C(C)(C)C)n(C)c3n1)C(=O)c1cccc(c1)S(=O)(=O)N2 (atropisomer, axis not shown) [Compound I-260]",> 60,< 1,–
CCc1cccc(CC)c1-c1cc2nc(n1)NS(=O)(=O)c1cccc(c1)C(=O)N(Cc1cnc3oc(C4CC4)cc3n1)[C@H](CC(C)(C)C)CO2 [IV-68],–,1 to 3,> 60
"Cc1cccc(CC(C)C)c1-c1nc2nc(c1C)OC[C@@H]([C@@H]1CCCO1)N(Cc1cnc3cc(C(C)(C)C)n(C)c3n1)C(=O)c1cccc(c1)S(=O)(=O)N2 (atropisomer, axis not shown) [IV-95]",–,< 1,> 60
Cc1cccc(C)c1-c1cc2nc(n1)NS(=O)(=O)c1cccc(c1)C(=O)N(Cc1ncc3oc(C4CC4)cc3n1)[C@H](CC13CC(C1)C3)CO2 [Compound I-209],> 60,1 to 3,–
Cc1cccc(C)c1-c1cc2nc(n1)NS(=O)(=O)c1cccc(c1)C(=O)N(Cc1cnc3oc(C(C)CO)cc3n1)[C@H](CC1(C)CC1)CO2 (stereo partly shown) [Compound I-256],> 60,1 to 3,–
Cc1cccc(C)c1-c1cc2nc(n1)NS(=O)(=O)c1cccc(c1)C(=O)N(Cc1cnc3oc(C(C)(C)C)cc3n1)[C@@H](CC1CC(F)(F)C1)CO2 [IV-57],–,3 to 30,> 60
Cc1cccc(C)c1-c1cc2nc(n1)NS(=O)(=O)c1cccc(c1)C(=O)N(Cc1cnc3cc(C(C)(C)C(F)(F)F)n(C)c3n1)[C@H](COC(C)C)CO2 [IV-99],–,1 to 3,> 60
Cc1cccc(C)c1-c1cc2nc(n1)NS(=O)(=O)c1cccc(c1)C(=O)N(Cc1nc3cc(C4CC4)oc3cc1F)[C@H](CC13CC(C1)C3)CO2 [Compound I-208],> 60,1 to 3,–
Cc1cccc(C)c1-c1cc2nc(n1)NS(=O)(=O)c1cccc(c1)C(=O)N(Cc1cnc3oc(C4CC4)cc3n1)[C@H]([C@H](C)OC(C)(C)C)CO2 (stereo in doubt) [IV-80],–,1 to 3,> 60
Cc1cccc(C)c1-c1cc2nc(n1)NS(=O)(=O)c1cccc(c1)C(=O)N(Cc1cnc3cc(C4(C(F)(F)F)CC4)n(C)c3n1)[C@H](C[C@@H]1CCCO1)CO2 [IV-103],–,1 to 3,> 60
Cc1cccc(C)c1-c1cc2nc(n1)NS(=O)(=O)c1cccc(c1)C(=O)N(Cc1ncc3oc(C(C)(C)C)cc3n1)[C@H](CC13CC(C1)C3)CO2 [Compound I-251],> 60,1 to 3,–
"Cc1cccc(C)c1-c1cc2nc(n1)NS(=O)(=O)c1cccc(c1)C(=O)N(Cc1cnc3cc(C(C)(C)C)n(C)c3n1)[C@@H](CC1CC(F)(F)C1)CO2 (single isomer, unassigned) [IV-55, 12-[(6-tert-Butyl-5-methyl-pyrrolo[2,3-b]pyrazin-3-yl)methyl]-11-[(3,3-difluorocyclobutyl)methyl]-6-(2,6-dimethylphenyl)-2,2-dioxo-9-oxa-2λ^6-thia-3,5,12,19-tetrazatricyclo[12.3.1.14,8]nonadeca-1(18),4(19),5,7,14,16-hexaen-13-one]",–,< 1,> 60
Cc1cccc(C)c1-c1nc2nc(c1C)OC[C@@H](C[C@@H]1CCCO1)N(Cc1cnc3cc(C4(C(F)(F)F)CC4)n(C)c3n1)C(=O)c1cccc(c1)S(=O)(=O)N2 [IV-105],–,< 1,> 60
Cc1cccc(C)c1-c1cc2nc(n1)NS(=O)(=O)c1cccc(c1)C(=O)N(Cc1cnc3oc(C4(C)CC4)cc3n1)[C@H](C[C@H]1CCCCO1)CO2 [IV-88],–,3 to 30,> 60
Cc1cccc(C)c1-c1cc2nc(n1)NS(=O)(=O)c1cccc(c1)C(=O)N(Cc1cnc3cc(C4(C(F)(F)F)CC4)n(C)c3n1)[C@H](COC(C)C)CO2 [IV-74],–,1 to 3,> 60
"Cc1cccc(C(C)C)c1-c1nc2nc(c1C)OC[C@@H](CC(C)(C)C)N(Cc1cnc3cc(C(C)C)n(C)c3n1)C(=O)c1cccc(c1)S(=O)(=O)N2 (atropisomer, axis not shown) [Compound I-179]",> 60,3 to 30,–
"Cc1cccc(CC(C)C)c1-c1nc2nc(c1C)OC[C@@H](CC(C)(C)C)N(Cc1ncc3cc(C4CC4)n(C)c3n1)C(=O)c1cccc(c1)S(=O)(=O)N2 (atropisomer, axis not shown) [IV-25]",–,1 to 3,> 60
"Cc1cccc(CC2CCCCC2)c1-c1nc2nc(c1C)OC[C@@H](CC(C)(C)C)N(Cc1cnc3cc(C(C)C)n(C)c3n1)C(=O)c1cccc(c1)S(=O)(=O)N2 (atropisomer, axis not shown) [Compound I-178]",> 60,< 1,–
"Cc1cccc(CC(C)C)c1-c1nc2nc(c1C)OC[C@@H](C[C@@H]1CCCCO1)N(Cc1cnc3cc(C(C)(C)C)n(C)c3n1)C(=O)c1cccc(c1)S(=O)(=O)N2 (atropisomer, axis not shown) [IV-81]",–,< 1,> 60
"Cc1cccc(CC(C)C)c1-c1nc2nc(c1C)OC[C@@H](CC(C)(C)C)N(Cc1cnc3oc(C4(C)CC4)cc3n1)C(=O)c1cccc(c1)S(=O)(=O)N2 (atropisomer, axis not shown) [Compound I-257]",> 60,1 to 3,–
"C=C(C)c1cc2nc(CN3C(=O)c4cccc(c4)S(=O)(=O)Nc4nc(cc(-c5c(C)cccc5C)n4)OC[C@H]3CC3(C)CC3)cnc2o1 [Compound I-255, (11R)-6-(2,6-dimethylphenyl)-12-[(6-isopropenylfuro[2,3-b]pyrazin-2-yl)methyl]-11-[(1-methylcyclopropyl)methyl]-2,2-dioxo-9-oxa-2λ^6-thia-3,5,12,19-tetrazatricyclo[12.3.1.14,8]nonadeca-1(18),4(19),5,7,14,16-hexaen-13-one]",> 60,1 to 3,–
Cc1cccc(C)c1-c1cc2nc(n1)NS(=O)(=O)c1cccc(c1)C(=O)N(Cc1cnc3oc(C4CC4)cc3n1)[C@H]([C@H](C)OCc1ccccc1)CO2 [IV-62],–,3 to 30,> 60
